Reference: patent US8901071B2, “Compounds and their use” (Novabiotics Limited, priority 2010, dated 2014)
No end group written: not given here.

Columns and labels:
mice = assay: lethality of peptide in mice; format: in vivo; conditions: dose of around 5 mg/kg
[1] = test system: P. aeruginosa bacterial biofilms; assay: bacterial biofilm assay, Example 2 (optical density at 625 nm; FIGS. 3-4); format: cell-based; conditions: biofilm grown 18 hours, 24 hours incubation, 0 to 1 mg/ml, combinations in equal concentration
Procedure: (§1) P. aeruginosa bacterial biofilms and S. aureus bacterial biofilms were grown in Mueller-Hinton agar in separate 96-well microtitre plates for 18 hours at 37 degrees Celsius. The planktonic cells and medium were then removed and the bacterial biofilms were washed three times with phosphate buffer solution at a pH of around 7. Two-fold dilutions of three different antimicrobial agents in Mueller Hinton broth were then added to the bacterial biofilms. The microtitre plates were incubated at 37 degrees Celsius for 24 hours. The medium was then transferred to a fresh microtitre plate and the optical density of the bacterial biofilm was measured at 625 nm on a microtitre plate reader (BioTek Powerwave, X S, Winooski, USA.
(§2) The antimicrobial agents tested were NP432 alone, a combination of NP432 and NM001 in equal concentration, a combination of NP432 and NP 108 in equal concentration, NP445 alone, a combination of NP445 and NM001 in equal concentration, a combination of NP445 and NP 108 in equal concentration. The antimicrobial agents were tested at concentrations of 0 to 1 mg/ml against P. aeruginosa bacterial biofilms and S. aureus bacterial biofilms.

[2] = test system: S. aureus bacterial biofilms; assay: bacterial biofilm assay, Example 2 (optical density at 625 nm; FIGS. 5-6); format: cell-based; conditions: biofilm grown 18 hours, 24 hours incubation, 0 to 1 mg/ml, combinations in equal concentration
Procedure: as §1, §2

Row | Sequence | lethality to mice (mice) | antimicrobial effect against P. aeruginosa bacterial biofilms [1] | antimicrobial effect against S. aureus bacterial biofilm [2]
1 | RRRFRFFFRFRRR [NP432, RRRFRFFFRFRRR] | non-lethal |  | 
2 | KKFPWRLRLRYGRR (sythetic peptide) [NP445] |  | antimicrobial effect | antimicrobial effect
